This passage reports EC50, IC50 and AC50 results from ChEMBL document CHEMBL1201862, “PubChem BioAssay data set” (2004).

Assay [1] concerns the target Potassium voltage-gated channel subfamily KQT member 2 (Rattus norvegicus, UniProt O88943, W236L). The assay is described as follows: KCNQ2 channel potentiators, dose response, mechanism study for KCNQ2 potentiator project, cell-based, automated electrophysiology (AID 2603). The format is functional.
The target in assay [2] is T1, 1-phosphatidylinositol 4,5-bisphosphate phosphodiesterase beta-3 (Homo sapiens, UniProt Q01970).
T1 sequence (Q01970 whole entry): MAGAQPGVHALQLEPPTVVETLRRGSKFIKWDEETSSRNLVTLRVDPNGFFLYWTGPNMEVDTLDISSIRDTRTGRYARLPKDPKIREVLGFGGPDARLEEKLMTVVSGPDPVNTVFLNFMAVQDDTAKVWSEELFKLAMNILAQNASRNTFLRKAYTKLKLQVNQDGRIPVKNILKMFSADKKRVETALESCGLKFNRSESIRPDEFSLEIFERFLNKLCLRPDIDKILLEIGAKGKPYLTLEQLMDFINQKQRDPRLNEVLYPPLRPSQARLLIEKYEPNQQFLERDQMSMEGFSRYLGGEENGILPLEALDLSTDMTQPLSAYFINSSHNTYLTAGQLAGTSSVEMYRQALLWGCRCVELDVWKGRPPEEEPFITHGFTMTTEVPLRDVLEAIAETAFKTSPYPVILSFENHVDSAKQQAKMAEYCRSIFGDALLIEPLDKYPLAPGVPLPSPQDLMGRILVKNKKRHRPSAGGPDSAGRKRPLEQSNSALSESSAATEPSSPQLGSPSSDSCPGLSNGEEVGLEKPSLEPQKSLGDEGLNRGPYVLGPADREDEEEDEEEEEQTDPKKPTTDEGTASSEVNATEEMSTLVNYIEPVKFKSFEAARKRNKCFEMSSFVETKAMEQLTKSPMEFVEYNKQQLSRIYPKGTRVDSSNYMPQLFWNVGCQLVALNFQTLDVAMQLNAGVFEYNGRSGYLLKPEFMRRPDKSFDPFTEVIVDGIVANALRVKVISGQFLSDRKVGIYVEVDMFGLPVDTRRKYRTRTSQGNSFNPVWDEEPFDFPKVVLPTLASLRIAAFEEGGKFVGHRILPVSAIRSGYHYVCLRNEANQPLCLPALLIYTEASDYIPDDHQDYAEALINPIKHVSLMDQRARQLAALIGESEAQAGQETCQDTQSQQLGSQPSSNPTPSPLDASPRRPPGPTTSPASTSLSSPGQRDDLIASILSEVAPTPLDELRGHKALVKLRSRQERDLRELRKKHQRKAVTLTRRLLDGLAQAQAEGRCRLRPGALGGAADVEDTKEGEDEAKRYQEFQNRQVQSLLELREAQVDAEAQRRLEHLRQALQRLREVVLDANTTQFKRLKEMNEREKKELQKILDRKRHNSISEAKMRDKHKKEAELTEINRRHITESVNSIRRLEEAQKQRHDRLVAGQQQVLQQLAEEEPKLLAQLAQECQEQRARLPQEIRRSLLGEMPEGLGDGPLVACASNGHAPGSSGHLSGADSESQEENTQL
The experiment in a line: Fluorescence-based biochemical high throughput dose response assay to identify inhibitors of phospholipase C isozymes (PLC-B3).

Assay [3] has as its system BJ. The assay is described as follows: cells. Type of assay: functional, cell-based. Particulars: Homo sapiens.
Assay [4] has as its system BJ. The experiment in a line: cytotoxicity toward BJ-TERT-LT-ST fibroblasts, dose response, cell-based, RAS-independent, luminescence (AID 1935).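 Note: BJ fibroblasts immortalized with TERT plus LT and ST oncogenes.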 Type of assay: functional. Particulars: Homo sapiens.
The nature of assay [5]: cytotoxicity in HEK-293T cells, dose response, cytotoxicity control for TCR NF-kB inhibitor project, luminescence, T-cell screen hits (AID 489026).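 Note: cells exposed to compound about 14 hours before the viability readout.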 The format is functional, cell-based.
Assay [6] concerns BJ. The experiment in a line: cytotoxicity toward Ras-transformed BJeLR fibroblasts, dose response, cell-based, alamar blue fluorescence, cherrypicked samples (AID 2631).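 Note: confirmatory dose-response assay in RAS-dependent BJ fibroblasts engineered with TERT, LT and ST, with cytotoxicity read by fluorescence.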 The settings on record: Homo sapiens. Type of assay: functional.
The nature of assay [7]: HepG2 cell cytotoxicity, dose response, cytotoxicity control for Shn3 inhibitor project, CellTiter-Glo, cherry-picked (AID 624134). Type of assay: functional, cell-based. Background: In ATP-based viability assays light output follows the ATP content of the culture.
For assay [8], the target named is Serine/threonine-protein phosphatase (Homo sapiens, UniProt Q9BPW0). The experiment in a line: PP5 phosphatase inhibitors, dose response, biochemical, fluorescence (AID 2395).
The target in assay [9] is T2, Sentrin-specific protease 6 (Homo sapiens, UniProt Q9GZR1).
T2 sequence (Q9GZR1 whole entry): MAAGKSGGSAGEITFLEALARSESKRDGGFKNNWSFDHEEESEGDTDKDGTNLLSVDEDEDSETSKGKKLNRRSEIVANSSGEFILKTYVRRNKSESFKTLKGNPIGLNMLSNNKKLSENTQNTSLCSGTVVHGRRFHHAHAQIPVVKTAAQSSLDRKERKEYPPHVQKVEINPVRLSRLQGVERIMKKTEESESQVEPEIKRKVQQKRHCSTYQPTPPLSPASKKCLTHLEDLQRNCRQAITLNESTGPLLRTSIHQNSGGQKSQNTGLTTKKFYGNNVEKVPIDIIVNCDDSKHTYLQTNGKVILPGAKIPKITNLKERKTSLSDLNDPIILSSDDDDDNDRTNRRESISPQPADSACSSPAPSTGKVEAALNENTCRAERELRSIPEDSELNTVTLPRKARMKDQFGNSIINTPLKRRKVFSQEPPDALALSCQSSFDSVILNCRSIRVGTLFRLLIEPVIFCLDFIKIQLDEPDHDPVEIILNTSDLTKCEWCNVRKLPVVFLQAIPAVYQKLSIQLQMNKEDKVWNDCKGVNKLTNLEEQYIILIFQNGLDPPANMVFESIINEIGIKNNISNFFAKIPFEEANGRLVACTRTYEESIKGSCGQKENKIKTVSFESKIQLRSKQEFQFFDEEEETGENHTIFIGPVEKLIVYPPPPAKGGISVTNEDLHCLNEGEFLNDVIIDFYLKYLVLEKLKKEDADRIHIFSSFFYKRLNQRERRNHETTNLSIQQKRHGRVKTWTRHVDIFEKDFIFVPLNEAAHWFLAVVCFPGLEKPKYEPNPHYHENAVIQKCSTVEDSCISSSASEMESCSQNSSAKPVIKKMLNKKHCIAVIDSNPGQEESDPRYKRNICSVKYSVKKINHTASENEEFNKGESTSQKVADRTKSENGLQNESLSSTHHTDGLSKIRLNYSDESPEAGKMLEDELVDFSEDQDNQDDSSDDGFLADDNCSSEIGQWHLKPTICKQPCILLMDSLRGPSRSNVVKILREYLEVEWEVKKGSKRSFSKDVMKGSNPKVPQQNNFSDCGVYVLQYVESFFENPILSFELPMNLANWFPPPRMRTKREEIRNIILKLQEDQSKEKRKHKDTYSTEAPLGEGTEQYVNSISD
The experiment in a line: SAR Analysis of small molecule inhibitors of Sentrin-specific protease 6 (SENP6) using a Luminescent assay. [Related pubchem assays (depositor defined):AID2582, AID2599]. The format is functional.

Assay [10] can be described thus: growth suppression of PTEN-null colon cells, dose response, cell-based, HCT116 PTEN knockout (AID 1047).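 Note: HCT116 colon tumor cells with PTEN knocked out; cells exposed to compound for 60 hours before readout; potency for loss of cell viability measured by luminescence.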 Type of assay: functional.
Assay [11] has as its target C-C chemokine receptor type 6 (Homo sapiens, UniProt P51684). The assay is described as follows: CCR6 receptor antagonists, dose response, cell-based, luminescent beta-arrestin readout (AID 504728). The format is functional.

SMILES strings stand for the structures. Calls of active or inactive are those of the source.

As a reminder, the EC50 is the concentration giving half of the maximal effect. As usually defined, the IC50 is the concentration needed to halve the response being measured. As usually defined, the AC50 is the concentration at which the activity in the assay is half-maximal.

Potassium voltage-gated channel subfamily KQT member 2, sequence (O88943 whole entry W236L): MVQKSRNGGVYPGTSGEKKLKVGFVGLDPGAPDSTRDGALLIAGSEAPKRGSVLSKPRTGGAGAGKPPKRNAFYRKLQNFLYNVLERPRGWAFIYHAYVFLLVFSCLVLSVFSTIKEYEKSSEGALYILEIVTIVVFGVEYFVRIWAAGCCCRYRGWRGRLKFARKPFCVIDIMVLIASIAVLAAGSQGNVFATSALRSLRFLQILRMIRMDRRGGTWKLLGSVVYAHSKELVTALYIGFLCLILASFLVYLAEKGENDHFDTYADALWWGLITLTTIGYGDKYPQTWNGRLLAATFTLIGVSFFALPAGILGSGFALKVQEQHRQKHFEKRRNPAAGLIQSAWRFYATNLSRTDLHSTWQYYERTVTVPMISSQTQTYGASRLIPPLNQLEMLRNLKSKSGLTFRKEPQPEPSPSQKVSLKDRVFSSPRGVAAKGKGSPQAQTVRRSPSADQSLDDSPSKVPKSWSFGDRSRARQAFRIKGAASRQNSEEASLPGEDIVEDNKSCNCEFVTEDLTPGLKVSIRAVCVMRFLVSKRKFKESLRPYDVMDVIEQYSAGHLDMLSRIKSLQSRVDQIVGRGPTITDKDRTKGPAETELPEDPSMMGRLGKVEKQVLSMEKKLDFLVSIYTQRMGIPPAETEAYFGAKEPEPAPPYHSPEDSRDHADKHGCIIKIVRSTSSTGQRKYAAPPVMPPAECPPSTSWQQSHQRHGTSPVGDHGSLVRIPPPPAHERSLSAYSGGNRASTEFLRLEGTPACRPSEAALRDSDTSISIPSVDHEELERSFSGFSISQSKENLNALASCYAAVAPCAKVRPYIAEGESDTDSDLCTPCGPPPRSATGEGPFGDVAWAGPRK
Serine/threonine-protein phosphatase, sequence (Q9BPW0 whole entry): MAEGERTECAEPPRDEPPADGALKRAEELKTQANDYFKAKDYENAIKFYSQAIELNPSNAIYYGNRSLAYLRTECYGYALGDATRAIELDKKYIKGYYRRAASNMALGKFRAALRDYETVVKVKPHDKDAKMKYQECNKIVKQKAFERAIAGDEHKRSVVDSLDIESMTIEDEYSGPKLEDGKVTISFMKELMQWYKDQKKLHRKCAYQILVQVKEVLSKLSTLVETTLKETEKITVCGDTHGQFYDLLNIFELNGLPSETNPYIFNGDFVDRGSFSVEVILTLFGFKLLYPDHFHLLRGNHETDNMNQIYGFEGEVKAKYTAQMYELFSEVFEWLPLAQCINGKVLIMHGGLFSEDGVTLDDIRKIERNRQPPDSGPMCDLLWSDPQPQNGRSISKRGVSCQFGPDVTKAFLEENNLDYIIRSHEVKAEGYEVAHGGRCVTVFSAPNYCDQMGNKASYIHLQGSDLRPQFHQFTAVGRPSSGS
C-C chemokine receptor type 6, sequence (P51684 whole entry): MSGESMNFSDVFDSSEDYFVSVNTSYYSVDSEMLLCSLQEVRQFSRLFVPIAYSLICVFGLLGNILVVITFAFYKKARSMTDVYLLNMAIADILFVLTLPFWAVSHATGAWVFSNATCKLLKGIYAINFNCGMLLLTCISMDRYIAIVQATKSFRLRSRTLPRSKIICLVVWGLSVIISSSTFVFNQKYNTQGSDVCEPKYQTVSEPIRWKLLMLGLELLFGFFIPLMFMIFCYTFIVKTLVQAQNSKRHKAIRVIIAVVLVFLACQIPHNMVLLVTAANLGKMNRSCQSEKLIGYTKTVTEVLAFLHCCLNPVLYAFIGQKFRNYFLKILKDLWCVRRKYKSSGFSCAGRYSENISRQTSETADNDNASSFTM

As to `Cc1ccccc1NC1=C/C(=N\S(=O)(=O)c2ccc(C(=O)O)cc2)c2ccccc2C1=O`, in assay [1], the EC50 is 9.51 µM (active). Besides, the IC50 in [2] is > 122 µM (inactive).

Take `COC(=O)C[C@]1(C(=O)OC)CN(C#N)N(c2ccc(Cl)cc2)C12c1ccccc1-c1ccccc12`: the EC50 is 2.7 µM (active) in the assay with BJ [3], 2.78 µM (inconclusive) in the assay with BJ [4] and 1.07 µM (active) in the assay on BJ [6]. In addition, the IC50 in assay [5] is > 80 µM (inactive). Also, the AC50 in assay [7] was 4.76 µM (active).

Regarding `CCCCn1c(NC(=O)c2ccco2)c(C(=O)OCC)c2nc3ccccc3nc21`, the IC50 in assay [8] was 10.3 µM (not active).

For `O=C(Nc1ccc(C#Cc2ccccc2)cc1)C1CC1`, the IC50 in assay [9] was > 99 µM (inactive).

Consider `Cc1ccc(NC2=C/C(=N/S(=O)(=O)c3cccs3)c3ccccc3C2=O)cc1`, for which the concentration giving a half-maximal response (EC50) in assay [10] was 3.56 µM (active). The IC50 in [11] was > 66.6 µM (inactive).
